Non-standard residues stand in square brackets, D forms with d. Residues, ends and D or L forms follow the SMILES beside them. No end group written: not given here. *: point of attachment. F1 = 5-carboxytetramethylrhodamine (donor fluorophore); code B = not defined here; code J = not defined here; Nle = CCCC[C@H](N)C(=O)O; Cbz = O=C(OCc1ccccc1)*; F^2 = not defined here; CH2F = FC*
Columns and labels:
[1] = intravenously injected antiFas; ischemia-reperfusion stroke model; cited from earlier work
intracellular caspases = assay: Effect of ZVAD(OMe)FMK on in situ caspase activation in dexamethasone-treated thymocytes, flow cytometry at 6 h; type: cell-based, mouse; parameters: effect when added before or simultaneously with dexamethasone: dose or concentration left out as unconfirmed
Description: Thymocytes were treated with 0.1 mM dexamethasone in vitro and analyzed after a total of 6 h incubation. The apoptosis inhibitor ZVAD(OMe)FMK was added at various times of incubation as indicated, and the caspase activities were assessed by flow cytometry. The results are expressed as ratios of mean fluorescence channel number comparing the activity in the presence of 50 mM ZVAD(OMe)FMK with the uninhibited sample for that substrate.
Single cell suspensions of thymocytes were cultured in RPMI 1640 with 10% FCS at a concentration of 10 6 cells/ml. Dexamethasone (final concentration, 0.1 mM) and ZVAD (OMe)FMK (final concentration, 50 mM) were added at the indicated times from stock solutions in DMSO (100 mM for dexamethasone and 200 mM for ZVAD[OMe]FMK). […] After washing in saline, cells were analyzed by flow cytometry. […] The fluorescence intensity was then monitored for 30-60 min. The initial velocity was calculated from the linear portion of the fluorescence increase. […]
The ability to detect intracellular caspase activities allowed us to study the pharmacological target of the potent apoptosis inhibitor ZVAD(OMe)FMK. […] Activity was assessed by the mean fluorescence channel number of PInegative cells. […] However, when addition of this inhibitor was delayed, the intracellular activity of all caspases detected rose, with no significant selective depletion of activity. […]

thymocytes = conditions: in vitro; cited from earlier work
CPP32 protease = biological target: T1, CPP32 protease (Homo sapiens, UniProt P42574); assay: Flow cytometric analysis of intracellular CPP32 protease activity in anti-Fas activated Jurkat cells; type: cell-based
T1 construct: served as a direct measure of the intracellular CPP32 protease activity; endogenous in cells
T1 sequence (P42574 29-277): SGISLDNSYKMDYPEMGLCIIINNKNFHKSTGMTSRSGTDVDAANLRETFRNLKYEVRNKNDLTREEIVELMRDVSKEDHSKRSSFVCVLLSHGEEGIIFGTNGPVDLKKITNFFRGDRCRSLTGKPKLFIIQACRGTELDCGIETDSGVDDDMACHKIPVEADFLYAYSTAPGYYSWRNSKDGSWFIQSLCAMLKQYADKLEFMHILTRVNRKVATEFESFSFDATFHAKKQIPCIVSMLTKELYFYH
Description: The concentration of substrates used in flow cytometric analysis was 10 M in RPMI1640 medium containing 4 to 10% fetal calf serum. Cell densities during incubation with the chosen substrates ranged from 50,000 cells per ml to 4,000,000 per ml. Incubation times were from 30 min. to 3 hours at 37° C. and incubation volumes were 50 μL to 2 ml. After incubation with substrate for 30 to 60 min. cell suspensions were diluted 10-fold with ice cold Hank's Buffered Saline Solution (HBSS). This filtered cell suspension was then subjected to flow cytometric analysis using a 488 nm excitation source. Becton Dickenson, Inc.'s flow cytometer, FacSort, was used in the flow cytometric analysis. […]
Control cells without substrate incubation and the sample with the greatest expected fluorescence signals were used to set the instrument detector parameters. For example after 15 minutes incubation of Jurkat cells with substrate compound #11 Fm-CGD2D: Fm—K[F1]DBJGDEVDGIDGJPK[F1]GY (SEQ ID NO: 202, where F1 was carboxytetramethylrhodamine; Fm was Fmoc, K[F1] was F1 covalently attached through the epsilon amino group of lysine (K), Nlu was norleucine, B was aminoisobutyric acid, and J was epsilon-aminocaproic acid) an increase of about 10 channels indicating cellular uptake of the substrates was measured. […] As much as a ten-fold increase in fluorescence intensity was observed. […]

[2] = test system: Jurkat cells, HL-60 cells, human lymphocyte lines, A1.1 cells, murine primary thymocytes; assay: Cellular uptake of substrates by fluorescence microscopy, flow cytometry, HPLC; type: cell-based; conditions: viable cells
Description: The compounds listed in Table 6 were synthesized and assayed for cellular uptake. Cellular internalization of the substrates was tested using Jurkat cells (a human acute T cell leukemic line), HL-60 cells (a human promyelocytic leukemic line), human lymphocyte lines, A1.1 cells (a murine T-cell line), and murine primary thymocytes. Procedures used in determining substrate uptake by viable cells are provided in Example 6 (for the HPLC procedures), in Example 2 (for the fluorescence microscopic analysis), and in Example 3 (for the flow cytometric analysis) a summary of these analyses with respect to cellular uptake of substrates is presented in this example.
The elastase substrate, Fm—K[F1]DAIPNluSIPK[F1]GY (SEQ ID NO:185), (where F1 was carboxytetramethylrhodamine, Fm was Fmoc, K[F1] was F1 covalently attached through the epsilon amino group of lysine (K), and Fm—K is the Fmoc group covalently attached at the alpha amino group of the amino terminal lysine residue) was used with HL-60 cells. Cells were incubated with various concentrations of elastase substrate ranging from 10 nM to 10 μM for 5 minutes to 60 minutes. Then the cells were diluted 5-fold with RPMI 1640 medium containing 5% serum or with phosphate buffered saline. The samples were centrifuged and washed once more with 1 ml of washing solution. After centrifugation and removal of the washing solution, cell pellets were loosened with about 25 ul of medium and these cells were transferred to a glass capillary. Capillary tubes were then placed on a glass microscope slide and examined under a fluorescence microscope using standard rhodamine filters.
For apoptosis-related protease activity determination, 10 μM concentration of the compounds listed in Example 8 (compound structures 2 through 13) were incubated with cells for 30 min. to 3 hours. The cells were then washed similarly twice. Using glass capillary tubes, the washed cells were transferred and examined under a fluorescence microscope.
The concentration of substrates used in flow cytometric analysis was 10 M in RPMI1640 medium containing 4 to 10% fetal calf serum. Cell densities during incubation with the chosen substrates ranged from 50,000 cells per ml to 4,000,000 per ml. Incubation times were from 30 min. to 3 hours at 37° C. and incubation volumes were 50 μL to 2 ml. After incubation with substrate for 30 to 60 min. cell suspensions were diluted 10-fold with ice cold Hank's Buffered Saline Solution (HBSS). This filtered cell suspension was then subjected to flow cytometric analysis using a 488 nm excitation source. Becton Dickenson, Inc.'s flow cytometer, FacSort, was used in the flow cytometric analysis. Typically, 10,000 to 30,000 events per sample were collected.

elastase [3] = assay: Emission spectrum change of indicator after addition of elastase (spectrofluorometer); type: biochemical; conditions: 37° C., slit widths 4 nm
Description: Changes in the emission spectrum of the fluorogenic protease indicator after the addition of an elastase protease was monitored using an SLM spectrofluorometer model 48000 with slit widths set at 4 nm on both the excitation and emission sides. All measurements were carried out at 37° C.
Spectra in FIG. 2 show emission of the fluorogenic protease indicator (a) before and (b) after addition of elastase, while the time dependent increase of the indicator's donor fluorophore emission intensity, after addition of elastase, is plotted in FIG. 3. […] The changes in intensity between treated and untreated indicators are, to some degree, a function of slit widths used, since they represent the signal integrated across the particular slit width. Thus, if wider slit widths were used (e.g. 8 or 16 nm slits) an even greater signal would be provided in response to digestion.

elastase [4] = assay: Elastase digestion of fluorogenic protease indicator, HPLC of cleavage products; type: biochemical; conditions: 1 unit of elastase, about 30 minutes, 37° C., pH 8.9
Description: Approximately 1 microgram of protease indicator, having the formula F^1-Asp-Ala-Ile-Pro-Nle-Ser-Ile-Pro-Cys-F^2 (SEQ ID No: 184) where F^1 is a donor fluorophore (5′-carboxytetramethylrhodamine (5-TMR)) linked to aspartic acid via the alpha amino group and F^2 is an acceptor fluorophore (rhodamine X acetamide (R492)) linked via the sulfhydryl group of the cysteine was dissolved in a buffer consisting of 50 mM sodium phosphate, 1 mM EDTA at pH 8.9. To this solution was added 1 unit of elastase. The solution was analyzed by HPLC before and about 30 minutes after the addition of elastase. The digestion was carried out at 37° C. The HPLC separated components were monitored at a wavelength of 550 nm which allowed detection of both the 5-TMR fluorophore the R492 fluorophore and at 580 nm which allowed detection of the R492 fluorophore.
In addition, the two predominant peaks in FIGS. 1(b) and 1(c) indicate that the digestion occurred primarily at a single site.

COC(=O)C[C@H](NC(=O)[C@H](C)NC(=O)[C@@H](NC(=O)OCc1ccccc1)C(C)C)C(=O)CF [ZVAD(OMe)FMK, carbobenzoxyvalylalanylaspartyl(bmethyl ester)fluoromethyl ketone] (Cbz-Val-Ala-Asp(OMe)-CH2F)
protection of mice [1]: protect mice from the lethal effects
effect of pretreatment followed by washing before dexamethasone addition (intracellular caspases): minimal inhibition
effect when added before or simultaneously with dexamethasone (intracellular caspases): blocks apoptosis
block of dexamethasone-induced thymocyte apoptosis (thymocytes): specifically blocks

Fm-K[F1]DBJGDEVDGIDGJPK[F1]GY (K(F1)D[code B][code J]GDEVDGIDG[code J]PK(F1)GY; not fully specified (N-terminus); printed as Fm-K[F1]DBJGDEVDGIDGJPK[F1]GY; reading uncertain) [Compound 11]
increase in fluorescence intensity in activated cells (CPP32 protease; 1 μg/ml anti-Fas antibody CH11 for 1 to 6 hours): ten-fold
increase in channels indicating cellular uptake (CPP32 protease; 15 minutes incubation): about 10 channels
cellular uptake (Table 6) [2]: efficient cellular uptake

F^1-Asp-Ala-Ile-Pro-Nle-Ser-Ile-Pro-Cys-F^2 (DAIP[Nle]SIPC-{F^2}; not fully specified (residue 9, N-terminus); printed as F1-Asp-Ala-Ile-Pro-Nle-Ser-Ile-Pro-Cys-F2; reading uncertain) [D-NorFES-A, F1 5'-carboxytetramethylrhodamine donor, F2 rhodamine X acetamide acceptor]
increase in fluorescence at 589 nm after treatment with elastase (elastase [3]): > 10 fold
increase in fluorescence within the first 1000 seconds of exposure to the protease (elastase [3]): > 5 fold
degree of cleavage by elastase (HPLC) (elastase [4]): complete digestion
